This is an account of results in BindingDB's records for doi:10.1021/jm0311442 (University of Newcastle, 2004).

This test has as its target Cyclin-dependent kinase 1/G2/mitotic-specific cyclin-B (Marthasterias glacialis, UniProt P15206+Q9DGD3). Put plainly: Kinase Inhibition Assay.

Sequence of Cyclin-dependent kinase 1/G2/mitotic-specific cyclin-B (Q9DGD3 whole entry): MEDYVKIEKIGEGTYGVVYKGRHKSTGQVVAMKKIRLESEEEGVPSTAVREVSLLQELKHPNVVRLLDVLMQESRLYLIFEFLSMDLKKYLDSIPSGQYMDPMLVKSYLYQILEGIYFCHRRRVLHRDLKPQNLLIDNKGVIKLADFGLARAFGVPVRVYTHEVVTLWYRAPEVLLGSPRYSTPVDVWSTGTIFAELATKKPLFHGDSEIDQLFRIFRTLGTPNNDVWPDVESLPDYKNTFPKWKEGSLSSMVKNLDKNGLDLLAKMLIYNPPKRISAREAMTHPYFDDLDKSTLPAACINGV
Sequence of Cyclin-dependent kinase 1/G2/mitotic-specific cyclin-B (P15206 whole entry): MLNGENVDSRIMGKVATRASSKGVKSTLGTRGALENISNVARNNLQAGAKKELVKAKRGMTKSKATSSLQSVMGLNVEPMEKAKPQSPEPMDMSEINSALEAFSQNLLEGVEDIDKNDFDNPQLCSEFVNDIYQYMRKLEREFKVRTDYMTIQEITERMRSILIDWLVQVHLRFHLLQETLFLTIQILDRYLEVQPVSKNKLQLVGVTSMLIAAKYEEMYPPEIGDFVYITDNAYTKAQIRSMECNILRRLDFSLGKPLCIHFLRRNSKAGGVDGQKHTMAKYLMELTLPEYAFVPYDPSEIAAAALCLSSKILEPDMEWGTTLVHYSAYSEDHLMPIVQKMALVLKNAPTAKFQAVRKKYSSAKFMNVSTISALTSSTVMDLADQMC

With `CS(=O)(=O)c1ccc(Nc2nc(OCC3CCCCC3)c3[nH]cnc3n2)cc1` [6-(cyclohexylmethoxy)-N-(4-methanesulfonylphenyl)-9H-purin-2-amine], the IC50 (in general, the concentration that gives 50% inhibition) came out at 80 nM.
